Test results published in patent publication US6458580B1, “Fungal sulphur source and method of using the same” (Commonwealth Scientific and Industrial Research Organisation, priority 1997, dated 2002).
Several values for one entry are separate records, joined by “and”; a condition that tells them apart may be missing. Equal entries are not always repeated.

Experiments:
[1] = test system: Neocallimastix isolates LM1 and TGB1; Piromyces isolates SM1, CS15 and TZB2; test: In vitro growth of selected fungal isolates at different doses of MPA; format: cell-based; settings: MPA 0-1.6 mM, media with 0.5% CHO, FIGS. 2a and 2b
Experimental: Five isolates were recovered in standard media from cryopreservation and one isolate was obtained from the culture collection. Table 2 below indicates nature of isolates.
Each isolate was transferred from standard media to a modification of the low sulphur media described in Example 1. Carbohydrates (glucose+cellobiose) were added to give either 0.2% (in subculture phase ) or 0.5% (in test phase)
. Triplicate tubes of the three concentrations were inoculated with each isolate and after 3-4 days subcultured using the tubes with the best apparent growth. […] This was to be the final assessment however as some growth was obtained in the 0 controls so all tubes were subcultured again into the same type of media. After a weeks incubation growth was determined by the decrease in media pH as described in Example 1.

[2] = Effect of infusion on feed intake and digestibility; format: in vivo, sheep; settings: for Digested DM, MPA / Digestibility (% DM), MPA / Intake DM, MPA: MPA infused at 192 mg Sulphur/sheep/day; for Digested DM, MPA / Digestibility (% DM), MPA / Intake DM, MPA / Digested DM, % (+) / Digestibility, % (+) / Intake DM, % (+) increase after infusion of MPA: individual sheep and Aver. n = 13; for Digested DM, % (+) / Digestibility, % (+) / Intake DM, % (+) increase after infusion of MPA: versus control period
Experimental: Feed was prepared as previously described (see example 4). Initially 22 sheep were fed 1 kg of alkali straw/day in the animal house for 4 days to select out sheep not eating the diet. 19 sheep were weighted and transferred to metabolism cages and feed the alkali straw diet ad-lib. Sheep were fed and on the following day the feed refusal weighted and if less then 100 g remained a further 100 g was fed; if 100-200g of feed remained the sheep was given the same amount of feed; if over 200 g of feed was left the sheep was given 100 g less feed. Over the following week another 6 sheep were moved out of the experiment (usually due to very low or erratic intakes). […] After 14 days infusion the collection period of 7 days commenced. Feed refusals were weighted, recorded, and a sample of up to 200 g/day pooled for subsequent analyses. Spilt feed was collected daily, weighted, recorded, and discarded. Faeces were collected with separators that excluded urine. The faeces were weighed and sub-sampled and pooled for subsequent analyses. Pooled faeces and feed were stored at −20° C. and then dried in a hot air oven (faeces were initially dried at 70° C.) at 100° C. cooled and weighted to determine dry weight (DM). Following the last sampling the infusion was stopped in the first group of sheep and on the following day the infusion treatment was begun in the other group of seven sheep. The second period (the crossover) was conducted in the same way as the first period with the same samples being taken at the same times.

Total Bacteria = test: Effect of infusion on total bacteria in rumen fluid; format: in vivo; design: Total Bacteria, MPA: unit not given here; settings: individual sheep and Aver. n = 13; for Total Bacteria, MPA: MPA infused at 192 mg Sulphur/sheep/day; for Total Bacteria, log (+): versus control period
Experimental: Feed was prepared as previously described (see example 4). Initially 22 sheep were fed 1 kg of alkali straw/day in the animal house for 4 days to select out sheep not eating the diet. 19 sheep were weighted and transferred to metabolism cages and feed the alkali straw diet ad-lib. Sheep were fed and on the following day the feed refusal weighted and if less then 100 g remained a further 100 g was fed; if 100-200g of feed remained the sheep was given the same amount of feed; if over 200 g of feed was left the sheep was given 100 g less feed. Over the following week another 6 sheep were moved out of the experiment (usually due to very low or erratic intakes). […] After 14 days infusion the collection period of 7 days commenced. At the end of the collection period samples of rumen digesta were taken for microbiology and other analyses. Rumen fluid was collected and fungal zoospores and total bacteria assessed as described in example 4 (the total bacteria were assessed on the same medium but without antibiotics). Cellulolytic bacteria were assessed by a most probable number count. Rumen fluid was serially diluted and subsamples of each dilution inoculated into 5 culture tubes containing an anaerobic medium containing rumen fluid and strips of filter paper. After incubation the presence of cellulolytic bacteria was detected by degradation of the paper and the numbers of positive tubes compared to tables to give a number of these bacteria in the original sample. Following the last sampling the infusion was stopped in the first group of sheep and on the following day the infusion treatment was begun in the other group of seven sheep. The second period (the crossover) was conducted in the same way as the first period with the same samples being taken at the same times.

## O=C(O)CCS [MPA, 3-mercaptopropanoic acid]
[1]
  growth response of sheep versus non-sheep isolates: no clear difference between the sheep and non-sheep isolates
[2]; 192 mg Sulphur/day/sheep, with the exception of one animal
  response in digestive performance to infusion: strong, positive, response
[2]; Table 4
  Digested DM, MPA: 357.26 g/day and 603.65 g/day and 558.00 g/day and 518.94 g/day and 806.76 g/day and 603.24 g/day and 630.64 g/day and 662.31 g/day and 673.01 g/day and 657.21 g/day and 714.69 g/day and 347.27 g/day and 414.97 g/day
  Digestibility (% DM), MPA: 50.799 % DM and 51.891 % DM and 45.708 % DM and 52.812 % DM and 58.076 % DM and 53.589 % DM and 46.808 % DM and 51.433 % DM and 53.840 % DM and 51.933 % DM and 48.119 % DM and 54.648 % DM and 51.522 % DM
  Intake DM, MPA: 703 g/day and 1163 g/day and 1221 g/day and 983 g/day and 1389 g/day and 1126 g/day and 1347 g/day and 1288 g/day and 1250 g/day and 1265 g/day and 1485 g/day and 635 g/day and 805 g/day
  Digested DM, % (+): 38.13% and 51.61% and 32.51% and 37.28% and 41.04% and 36.94% and 24.76% and 17.23% and 46.34% and 40.49% and 9.57% and 38.47% and 63.31%
  Digestibility, % (+): 5.019% and 7.795% and 2.610% and 1.453% and 5.112% and 7.462% and 2.544% and 0.444% and 2.855% and 4.777% and 0.002% and 7.459% and 7.799%
  Intake DM, % (+) increase after infusion of MPA: 24.5% and 28.8% and 24.9% and 33.5% and 28.6% and 17.9% and 18.0% and 16.2% and 38.6% (2×) and 27.5% and 9.6% and 19.6%
[2]; Table 4, mean of 13 sheep
  Digested DM, MPA: 581 g/day
  Digestibility (% DM), MPA: 51.6 % DM
  Intake DM, MPA: 1128 g/day
  Digested DM, % (+): 36.75%
  Digestibility, % (+): 4.26%
  Intake DM, % (+) increase after infusion of MPA: 25.1%
[2]; Table 5
  Intake DM, MPA: 805 g/day and 703 g/day and 1163 g/day and 1221 g/day and 983 g/day and 1389 g/day and 1126 g/day and 1347 g/day and 1288 g/day and 1250 g/day and 1265 g/day and 1485 g/day and 635 g/day
  Intake DM, % (+) increase after infusion of MPA: 38.6% (2×) and 24.5% and 28.8% and 24.9% and 33.5% and 28.6% and 17.9% and 18.0% and 16.2% and 27.5% and 9.6% and 19.6%
[2]; Table 5, mean
  Intake DM, MPA: 1128 g/day
  Intake DM, % (+) increase after infusion of MPA: 25.1%
Total Bacteria
  Total Bacteria, MPA: 10.50 × 10^8 (2×) and 8.07 × 10^8 and 6.83 × 10^8 and 7.50 × 10^8 and 10.00 × 10^8 and 7.17 × 10^8 and 5.87 × 10^8 and 12.00 × 10^8 and 14.50 × 10^8 and 10.83 × 10^8 and 10.67 × 10^8 and 6.33 × 10^8
  Total Bacteria, log (+): 0.27 log and 0.31 log (2×) and −0.34 log (2×) and −0.17 log and 0.02 log and 0.05 log and 0.25 log (2×) and 0.29 log and 0.33 log and 0.10 log
Total Bacteria; mean
  Total Bacteria, MPA: 9.29 × 10^8
  Total Bacteria, log (+): 0.10 log
